# Laboratory results taken from patent US8524729B2, “Cinnamoyl derivatives and use thereof” (Sumitomo Chemical Company, Limited, priority 2003, dated 2013).
# Assay: Inhibition of the ability of TGF-β to promote transcription of a Type I collagen gene, COL-Luc luciferase reporter in normal human fetal skin fibroblasts
# Format: cell-based
# Details: final concentration 1 μM; TGF-β added after one hour; 40 hours; normal human fetal skin fibroblast transfected with COL-Luc and pCMV-β-gal; read-out: Inhibition percentage
# Method: 1×10^8 cells of a normal human fetal skin fibroblast (Clontech, catalogue No. CC-2509) were cultured at 37° C. overnight under 5% CO2 atmosphere. After the cultured cells were washed with a sodium phosphate buffer (hereinafter, referred to as PBS) twice, 3 ml of PBS was added thereto and the cells were scraped away the wall of a vessel using a cell scraper (Nalgen, catalogue No. 179693). The scraped cells were collected by centrifugation (1,500 rpm, 4° C., 15 min), and these were suspended in 20 ml of PBS and centrifuged again. To the resulting precipitates were added 11 ml of Solution 2 and 4.8 μl of pronase of DNA Extraction Kit (Stratagene, catalogue No. 200600). After shaken at 60° C. for 1 hour, the resulting mixture was allowed to stand in ice for 10 minutes. Then, 4 ml of Solution 3 of the kit was added to the mixture. After mixed, the mixture was allowed to stand in ice for 5 minutes and then centrifuged (3,000 rpm, 4° C., 15 min) to recover a supernatant. To the recovered supernatant was added 2 μl of RNase per 1 ml of the supernatant and the mixture was allowed to stand at 37° C. for 15 minutes. To the mixture was added 2-fold volume of ethanol. After mixed, a white thread-like substance (genomic DNA) appeared and the substance was recovered. The recovered genomic DNA was washed with 70% ethanol and then air-dried. The air-dried genomic DNA was dissolved in 500 μl of 10 mM Tris-HCl, 1 mM EDTA (pH 8.0) (hereinafter, referred to as TE).
# The resulting genomic DNA solution (the amount equivalent to 1 μg of genomic DNA), each 1 μl ([…]) of an oligonucleotide consisting of the nucleotide sequence represented by SEQ ID No:1 and an oligonucleotide consisting of the nucleotide sequence represented by SEQ ID No: 2, 29 μL of distilled water, 5 μl of the buffer attached to TaKaRa LA Taq (TAKARA SHUZO, catalogue No. RR002A), 5 μL of a Mg^2+ solution, 5 μL of a dNTP mixture and 0.5 μl of TaKaRa LA Taq (TAKARA SHUZO, catalogue No. RR002A) were mixed. After the resulting mixed solution was incubated at 94° C. for 5 minutes, the mixed solution was subjected to 30 cycles, in which one cycle consists of incubation at 94° C. for 1 minute, at 60° C. for 1 minute and then at 72° C. for 1 minute. The mixed solution was electrophoresed on a 2% agarose gel to recover about 0.5 kb of a DNA. The recovered DNA was treated with phenol/chloroform and then precipitated with ethanol to recover the DNA. The resulting DNA was dissolved in ultrapure water. To this solution were added 2.5 μl of NheI and 2.5 μl of HindIII, and then incubated at 37° C. for 3 hours. Then, the solution was electrophoresed on a 2% agarose gel to recover […] of a DNA. The recovered DNA was precipitated with ethanol to recover again the DNA (hereinafter, referred to as the collagen promoter DNA). […]
row,Structure (SMILES),inhibition at 1 µM [%]
1,"COC1=C(C(=O)C=Cc2ccc(OC(F)(F)F)c(Cl)c2)COC(C)=C1 [Compound No. (2a-17), 4-methoxy-3-[3-[3-chloro-4-(trifluoromethoxy)phenyl]-1-oxo-2-propenyl]-6-methyl-2H-pyran]",≥ 70
2,"COc1c(C(=O)C=Cc2ccc(OC(F)(F)F)c(Cl)c2)c(=O)oc2ccccc12 [Compound No. (2c-17), 4-methoxy-3-[3-[3-chloro-4-(trifluoromethoxy)phenyl]-1-oxo-2-propenyl]-2H-1-benzopyran-2-one]",≥ 70
3,"Cc1cc(O)c(C(=O)C=Cc2ccc(OC(F)(F)F)c(Cl)c2)c(=O)[nH]1 [Compound No. (3a-32), 4-hydroxy-3-[3-[3-chloro-4-(trifluoromethoxy)phenyl]-1-oxo-2-propenyl]-6-methyl-2(1H)-pyridinone]",≥ 70
4,"O=C(C=Cc1ccc(OC(F)(F)F)c(Cl)c1)c1c(O)c2ccccc2[nH]c1=O [Compound No. (3c-32), 4-hydroxy-3-[3-[3-chloro-4-(trifluoromethoxy)phenyl]-1-oxo-2-propenyl]-2(1H)-quinolinone]",≥ 70
